# Data taken from patent publication US12729221B2, “Anti-inflammatory peptide and use thereof” (MITO QUEST CO., LTD., priority 2020, dated 2026).
# Where no end group is shown, it is not given here.
# What was measured:
# [1] = system: interferon-beta (IFN-b); assay: polyIC-induced IFN-b expression in MLE-12 cells, ELISA; assay type: cell-based, mouse; settings: 5 mg/ml polyIC, 16 hours, 25 mM or 2 mM peptide, FIG. 9A
# Procedure: Specifically, polyinosinic:polycytidylic acid (polyIC), which is a synthetic ribonucleic acid known to be associated with viral infection among the PAMPs and promotes the production of interferon and is analogous to an RNA virus gene, was used to induce a viral infection response. First, a serum-free cell culture medium containing 5 mg/ml polyIC and MQP-15, MQP-23, MQP-31, MQP-37, MQP-Y9 or MQP-T234 was treated with 1×10^5 cells of a mouse lung epithelial cell line (MLE-12) for 16 hours. Then, the supernatant was obtained and the expression level of interferon-beta (IFN-b) was checked by enzyme-linked immunosorbent assay (ELISA).
# (§1) Specifically, LPS and ATP were used to induce an inflammasome response caused by bacterial infection, and polyIC was used to induce an inflammatory response caused by viral infection. First, 1 mg/ml LPS and 5 mM or 1 mM novel alanine-substituted peptide were mixed in a serum-free cell culture medium, followed by treatment with 1×10^5 cells of IC21. Thereafter, 5 mM ATP and 5 mM or 1 mM novel alanine-substituted peptide were mixed in a serum-free cell culture medium and treated for 30 minutes. Then, the supernatant was obtained and the expression level of IL-1b was checked by ELISA. Also, 5 mg/ml polyIC and 25 mM or 2 mM novel alanine-substituted peptide were mixed in a serum-free cell culture medium, followed by treatment with 1×10^5 cells of MLE-12 for 16 hours. Thereafter, the supernatant was obtained and the expression level of IFN-b was checked by ELISA.
# as §1, with “2” for “5 mM or 1”, “amino acid-substituted” for “alanine-substituted”, “and” for “and 25 mM or”
# Specifically, polyIC was used to induce a viral infection response. First, a serum-free cell culture medium containing 5 mg/ml polyIC and MQP-37, MQP-37A6, MQP-37D6W, MQP-37D6Y, MQP-37D6H, MQP-37D6K, MQP-37D6R or MQP-37D6V was treated with 1×10^5 cells of MLE-12 for 16 hours. Then, the supernatant was obtained and the expression level of IFN-b was checked by ELISA.
# [2] = system: interleukin-6 (IL-6); assay: LPS-induced IL-6 expression in IC21, ELISA; assay type: cell-based, mouse; settings: 0.1 mg/ml LPS, 6 hours, FIG. 12A-A
# Procedure: Specifically, LPS was used to induce an inflammatory response caused by bacterial infection. First, MQP-15, MQP-23, MQP-31, MQP-37 or MQP-Y9 was added to a serum-free cell culture medium containing 0.1 mg/ml LPS, followed by treatment with 1×10^5 cells of IC21 for 6 hours. Then, the supernatant was obtained and the expression levels of interleukin-6 (IL-6) and a tumor necrosis factor-alpha (TNF-a) were checked by ELISA.
# [3] = system: NF-κB; assay: LPS-induced phosphorylation of NF-kB in IC21, Western blot; assay type: cell-based, mouse; settings: LPS, Western blot, FIGS. 12B-D to 12B-F
# Source text: Specifically, LPS was used to induce an immune activation response caused by bacterial infection, and the phosphorylation of nuclear factor kappa-light-chain-enhancer of activated B cells (NF-kB) was checked to identify the mechanism of the immune activation response. […] Thereafter, the cells were washed with a PBS solution and then lysed with a RIPA buffer, and the supernatant was separated. In order to measure the change in the phosphorylation amount of NF-κB protein with the separated supernatant, the Western blot was performed as in Example 2.
# [4] = system: IL-1b; assay: LPS/ATP-induced IL-1b expression (inflammasome response) in IC21, ELISA; assay type: cell-based, mouse; settings: 1 mg/ml LPS, 5 mM ATP 30 minutes
# Procedure: as §1
# as §1, with “2” for “5 mM or 1”, “amino acid-substituted” for “alanine-substituted”, “and” for “and 25 mM or”
# Specifically, LPS was used to induce an inflammatory response caused by bacterial infection. First, MQP-37 or MQP-37A6 was added to a serum-free cell culture medium containing 0.1 mg/ml LPS, followed by treatment with 1×10^5 cells of IC21 for 6 hours. Then, the supernatant was obtained and the expression level of IL-6 was checked by ELISA. Also, the Western blot was performed and the phosphorylation of NF-κB was checked to identify the mechanism of immune activation response. Thereafter, LPS and ATP were used to induce an inflammasome response caused by bacterial infection, LPS and ATP were used. First, 1 mg/ml LPS and L- or D-MQP-37 and MQP-37A6 were mixed in a serum-free cell culture medium and treated with 1×10^5 cells of IC21. Then, 5 mM ATP and MQP-37 or MQP-37A6 were mixed in a serum-free cell culture medium and treated for 30 minutes. Thereafter, the supernatant was obtained and the expression level of IL-1b was checked by ELISA.
# [5] = molecular target: recombinant MAVS protein (Homo sapiens, UniProt Q7Z434); assay: Binding of fluorescence-labeled peptides to plate-coated recombinant MAVS protein
# Chain of recombinant MAVS protein (Q7Z434 whole entry, species assumed): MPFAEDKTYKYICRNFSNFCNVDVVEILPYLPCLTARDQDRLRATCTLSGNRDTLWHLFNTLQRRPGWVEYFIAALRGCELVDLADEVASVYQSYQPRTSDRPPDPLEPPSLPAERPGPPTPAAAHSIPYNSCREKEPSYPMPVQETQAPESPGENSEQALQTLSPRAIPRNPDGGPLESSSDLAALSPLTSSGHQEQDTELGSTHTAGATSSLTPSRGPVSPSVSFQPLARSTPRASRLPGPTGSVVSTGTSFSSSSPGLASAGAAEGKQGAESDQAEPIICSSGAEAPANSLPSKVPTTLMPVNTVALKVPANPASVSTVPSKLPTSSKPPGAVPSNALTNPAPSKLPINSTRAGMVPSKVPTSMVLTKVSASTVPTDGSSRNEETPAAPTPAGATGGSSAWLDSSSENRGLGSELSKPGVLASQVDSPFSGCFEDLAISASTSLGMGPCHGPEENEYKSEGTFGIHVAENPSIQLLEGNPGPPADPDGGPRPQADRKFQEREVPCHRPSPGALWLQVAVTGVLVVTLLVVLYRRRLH
# Procedure: Specifically, recombinant MAVS protein and fluorescence-labeled peptides MQP-37 and MQP-37A6 were used to check the binding affinity to the MAVS protein. First, 250 ng of recombinant MAVS protein was coated on a 96-well plate for ELISA, followed by blocking with 1% BSA/PBS solution. Thereafter, fluorescence-labeled peptides of various concentrations were added thereto and reacted for 2 hours, and the amount of peptide bound to the MAVS protein was checked by fluorescence measurement.
# [6] = system: mouse sepsis models induced by LPS; assay: Mouse sepsis model induced by LPS, survival; assay type: in vivo, C57BL/6 wild-type mice
# Procedure: Specifically, 2 mg/kg and 5 mg/kg LPS were administered into the abdominal cavity of 7-week-old C57BL/6 wild-type mice every 6 hours, and 1 hour later, 0.4 mg/kg, 2 mg/kg and 10 mg/kg novel peptides were additionally administered into the abdominal cavity of the mice. Then, the survival of the mice was checked for 4 days.
sequence,measurement,setting,value
SLVLAAARW [MQP-37A6],"inflammatory response caused by viral infection (IFN-b), compared to original MQP-37",[1],significantly improved
same,"inflammatory response caused by bacterial infection (IL-6), compared with MQP-37",[2],more than the original peptide MQP-37
same,"immune activation response (NF-κB phosphorylation), compared with MQP-37",[3],more than the original peptide MQP-37
same,"inflammasome response caused by bacterial infection (IL-1b), sixth amino acid of MQP-37 substituted","[4]; 2 mM peptide, FIG. 10A-B",most effectively
same,"inflammasome response caused by bacterial infection (IL-1b), compared to original MQP-37","[4]; 5 mM or 1 mM peptide, FIG. 9A",significantly improved
same,"inflammasome response caused by bacterial infection (IL-1b), compared with MQP-37",[4]; FIGS. 12A-B and 12A-C,more than the original peptide MQP-37
same,Kd,[5],~750 µM
same,treating sepsis,[6],effective
